The NIST ThermoML archive (doi:10.1021/je030215z)
Numbers after ± are expanded uncertainties.

Legend:
[1] = excess molar enthalpy (molar enthalpy of mixing); xn = mol fraction of the nth substance listed; settings: 298.15 K, 101.33 kPa, Liquid, Flow calorimetry
[2] = 298.15 K; 101.33 kPa; Liquid

C=CCCCC [hex-1-ene] + CCCCCCCCCC
excess molar enthalpy ([1]; x1 = 0.05): 0.0161 ± 0.0009 kJ/mol
excess molar enthalpy ([1]; x1 = 0.1): 0.0304 ± 0.001 kJ/mol
excess molar enthalpy ([1]; x1 = 0.1503): 0.043 ± 0.0011 kJ/mol
excess molar enthalpy ([1]; x1 = 0.2001): 0.0541 ± 0.0012 kJ/mol
excess molar enthalpy ([1]; x1 = 0.2482): 0.0643 ± 0.0013 kJ/mol
excess molar enthalpy ([1]; x1 = 0.2997): 0.073 ± 0.0013 kJ/mol
excess molar enthalpy ([1]; x1 = 0.3504): 0.0796 ± 0.0014 kJ/mol
excess molar enthalpy ([1]; x1 = 0.3999): 0.0852 ± 0.0014 kJ/mol
excess molar enthalpy ([1]; x1 = 0.4508): 0.0884 ± 0.0015 kJ/mol
excess molar enthalpy ([1]; x1 = 0.4994): 0.0907 ± 0.0015 kJ/mol
excess molar enthalpy ([1]; x1 = 0.5501): 0.0908 ± 0.0015 kJ/mol
excess molar enthalpy ([1]; x1 = 0.5996): 0.089 ± 0.0015 kJ/mol
excess molar enthalpy ([1]; x1 = 0.6496): 0.0855 ± 0.0014 kJ/mol
excess molar enthalpy ([1]; x1 = 0.7004): 0.0797 ± 0.0014 kJ/mol
excess molar enthalpy ([1]; x1 = 0.7495): 0.0721 ± 0.0013 kJ/mol
excess molar enthalpy ([1]; x1 = 0.7998): 0.0622 ± 0.0013 kJ/mol
excess molar enthalpy ([1]; x1 = 0.8501): 0.0511 ± 0.0012 kJ/mol
excess molar enthalpy ([1]; x1 = 0.9): 0.0361 ± 0.0011 kJ/mol
excess molar enthalpy ([1]; x1 = 0.95): 0.0191 ± 0.00093 kJ/mol

C=CCCCC [hex-1-ene] + CCCCCCCCCCCC
excess molar enthalpy ([1]; x1 = 0.0501): 0.0214 ± 0.00095 kJ/mol
excess molar enthalpy ([1]; x1 = 0.0999): 0.0408 ± 0.0011 kJ/mol
excess molar enthalpy ([1]; x1 = 0.15): 0.0568 ± 0.0012 kJ/mol
excess molar enthalpy ([1]; x1 = 0.1999): 0.0726 ± 0.0013 kJ/mol
excess molar enthalpy ([1]; x1 = 0.2521): 0.0871 ± 0.0014 kJ/mol
excess molar enthalpy ([1]; x1 = 0.2994): 0.0985 ± 0.0015 kJ/mol
excess molar enthalpy ([1]; x1 = 0.3494): 0.108 ± 0.0016 kJ/mol
excess molar enthalpy ([1]; x1 = 0.4001): 0.116 ± 0.0017 kJ/mol
excess molar enthalpy ([1]; x1 = 0.4503): 0.12 ± 0.0017 kJ/mol
excess molar enthalpy ([1]; x1 = 0.5001): 0.123 ± 0.0017 kJ/mol
excess molar enthalpy ([1]; x1 = 0.5505): 0.123 ± 0.0017 kJ/mol
excess molar enthalpy ([1]; x1 = 0.5998): 0.121 ± 0.0017 kJ/mol
excess molar enthalpy ([1]; x1 = 0.6501): 0.116 ± 0.0017 kJ/mol
excess molar enthalpy ([1]; x1 = 0.6999): 0.109 ± 0.0016 kJ/mol
excess molar enthalpy ([1]; x1 = 0.7499): 0.0981 ± 0.0015 kJ/mol
excess molar enthalpy ([1]; x1 = 0.8001): 0.0839 ± 0.0014 kJ/mol
excess molar enthalpy ([1]; x1 = 0.8503): 0.0678 ± 0.0013 kJ/mol
excess molar enthalpy ([1]; x1 = 0.8999): 0.0488 ± 0.0012 kJ/mol
excess molar enthalpy ([1]; x1 = 0.95): 0.0262 ± 0.00098 kJ/mol

CCCCCCCC [octane]
mass density [2]: 698.72 ± 0.44 kg/m3

CCCCCCCCCCCCCC [tetradecane]
mass density [2]: 759.36 ± 0.47 kg/m3

CCCCCCCCCCCCCC [tetradecane] + C=CCCCC
excess molar enthalpy ([1]; x2 = 0.05): 0.0258 ± 0.00098 kJ/mol
excess molar enthalpy ([1]; x2 = 0.1001): 0.0519 ± 0.0012 kJ/mol
excess molar enthalpy ([1]; x2 = 0.1501): 0.075 ± 0.0014 kJ/mol
excess molar enthalpy ([1]; x2 = 0.2003): 0.0952 ± 0.0015 kJ/mol
excess molar enthalpy ([1]; x2 = 0.2499): 0.113 ± 0.0016 kJ/mol
excess molar enthalpy ([1]; x2 = 0.297): 0.127 ± 0.0018 kJ/mol
excess molar enthalpy ([1]; x2 = 0.3497): 0.142 ± 0.0019 kJ/mol
excess molar enthalpy ([1]; x2 = 0.4002): 0.152 ± 0.0019 kJ/mol
excess molar enthalpy ([1]; x2 = 0.4498): 0.157 ± 0.002 kJ/mol
excess molar enthalpy ([1]; x2 = 0.5): 0.162 ± 0.002 kJ/mol
excess molar enthalpy ([1]; x2 = 0.5497): 0.162 ± 0.002 kJ/mol
excess molar enthalpy ([1]; x2 = 0.5998): 0.159 ± 0.002 kJ/mol
excess molar enthalpy ([1]; x2 = 0.6495): 0.152 ± 0.002 kJ/mol
excess molar enthalpy ([1]; x2 = 0.6996): 0.142 ± 0.0019 kJ/mol
excess molar enthalpy ([1]; x2 = 0.7502): 0.128 ± 0.0018 kJ/mol
excess molar enthalpy ([1]; x2 = 0.7996): 0.11 ± 0.0016 kJ/mol
excess molar enthalpy ([1]; x2 = 0.8498): 0.0883 ± 0.0015 kJ/mol
excess molar enthalpy ([1]; x2 = 0.8999): 0.0629 ± 0.0013 kJ/mol
excess molar enthalpy ([1]; x2 = 0.95): 0.0312 ± 0.001 kJ/mol
